This is an account of results in the supplement of paper PMC4862054.

Common to all, as to conditions: incubation time: 72 h
Assay [1] concerns CAL-51. In words: normalised viability (% of control), CellTiter-Blue; higher = more viable cells (about 100 = DMSO control). The procedure:
(§1)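 DSRT, CellTiter-Blue viability, 72 h incubation. Signal is normalised to DMSO and benzethonium chloride controls. Value is the normalised response at dose 7.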
(In general: Alamar Blue is a resazurin reagent that responds to reducing activity.)

The next assay relates to DU-4475. The description is as above. The procedure: as §1
In assay [2] the test system is MDA-MB-453. The description is as above. The procedure:
as §1

For assay [3], the system named is HDQ-P1. The assay is described as above. As to the method: as §1
The next assay has as its system CAL-148. The assay is described as above. The procedure:
as §1

The test system of another assay is CAL-85-1. The description is as above. The procedure: as §1
In assay [4] the test system is CAL-51. Briefly: normalised response (% of control), CellTox Green; higher = less cell death (100 = DMSO, 0 = benzethonium chloride kill control). The method in brief: (§2)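 Breast cancer cell lines were exposed for 72 h in 384-well plates to compound at 5 concentrations, 10-fold apart, covering a 10,000-fold range fixed for each compound. Plates were read for CellTox Green fluorescence and CellTiter-Glo luminescence and normalised to 0.1 % DMSO (100) and a positive kill control (0). Each value is the normalised signal at one concentration of the series.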

The subject of the next assay is CAL-120. The assay is described as above. In short, it runs like this:
as §2

The next assay relates to BT-549. The description is as above. The method in brief: as §2
For another assay, the system named is Hs578T. The assay is described as above. In short, it runs like this: as §2
For a further assay, the system named is BT-474. The description is as above. The method in brief: as §2
The subject of assay [5] is MDA-MB-453. The description is as above. In short, it runs like this:
as §2

Assay [6] has as its system HDQ-P1. The description is as above. The method in brief: as §2

As for `C#Cc1cccc(Nc2ncnc3cc(OCCOC)c(OCCOC)cc23)c1` [Erlotinib] (1000 nM), the normalised viability in the assay on CAL-51 [1] was 92%; with DU-4475 it was 94.8%; with MDA-MB-453 [2] it was 91.4%; in the assay with HDQ-P1 [3], 71.6%; in the assay with CAL-148, 63%; with CAL-85-1, 62.4%. Moreover, the normalised response was found to be 78.1% in the assay on CAL-51 [4]; 103% with CAL-120; 96.5% with BT-549; 99.5% in the assay with Hs578T; 98.3% with BT-474; 108% in the assay with MDA-MB-453 [5]. In the assay on HDQ-P1 [6], this compound displayed a normalised response of 100%.
Take `Clc1ccc(Nc2nnc(Cc3ccncc3)c3ccccc23)cc1` [Vatalanib] (1000 nM): the normalised viability in the assay with CAL-51 [1] is 101%; with DU-4475, 97.8%; in the assay on MDA-MB-453 [2], 91.6%; in the assay with HDQ-P1 [3] it was 98.6%; with CAL-148, 83.4%; in the assay with CAL-85-1, 92.5%. In addition, the normalised response in the assay on CAL-51 [4] was 109%; in the assay with CAL-120 it was 92.8%; in the assay with BT-549, 137%; in the assay on Hs578T, 105%; with BT-474 it was 97.2%; in the assay with MDA-MB-453 [5], 104%. The compound further yielded a normalised response in the assay on HDQ-P1 [6] of 105%.
On to `CN(N=O)C(=O)N[C@@H](C=O)[C@@H](O)[C@H](O)[C@H](O)CO` [Streptozocin] (1000 nM), for which the normalised viability worked out at 103% in the assay with CAL-51 [1]; 112% in the assay on DU-4475; 105% in the assay on MDA-MB-453 [2]; 95.5% in the assay on HDQ-P1 [3]; 98.6% in the assay on CAL-148; 91.2% in the assay on CAL-85-1. Also, the normalised response in the assay with CAL-51 [4] is 95.2%; with CAL-120 it was 106%; with BT-549, 99.5%; in the assay with Hs578T, 99%; in the assay with BT-474 it was 97.2%; with MDA-MB-453 [5], 108%. The compound further displayed a normalised response in the assay with HDQ-P1 [6] of 92.3%.
On to `CO[C@H]1/C=C\C=C(/C)C(=O)NC2=CC(=O)C(NCCN(C)C)=C(C[C@@H](C)C[C@H](OC)[C@H](O)[C@@H](C)/C=C(\C)[C@@H]1OC(N)=O)C2=O` [Alvespimycin] (100 nM), for which the normalised viability in the assay with CAL-51 [1] was found to be 34.7%; with DU-4475, 0.89%; with MDA-MB-453 [2], 6.21%; in the assay on HDQ-P1 [3], 38%; in the assay with CAL-148, 15.6%; with CAL-85-1, 33.1%. The normalised response with CAL-51 [4] was 60.4%; in the assay on CAL-120, 95%; in the assay on BT-549 it was 130%; with Hs578T, 101%; in the assay with BT-474, 76.6%; with MDA-MB-453 [5] it was 91.4%. In the assay with HDQ-P1 [6], the normalised response came to 75.2%.
On to `CN[C@@H]1C[C@H]2O[C@@](C)([C@@H]1OC)n1c3ccccc3c3c4c(c5c6ccccc6n2c5c31)C(=O)N[C@H]4O` [UCN-01] (1000 nM), for which the normalised viability with CAL-51 [1] was 16.8%; in the assay with DU-4475, 10.1%; with MDA-MB-453 [2] it was 30.2%; with HDQ-P1 [3] it was 32.1%; in the assay on CAL-148, 81.5%; in the assay on CAL-85-1, 33.7%. For the same compound, the normalised response in the assay with CAL-51 [4] amounted to 40.2%; in the assay with CAL-120 it was 59.7%; with BT-549, 78.7%; with Hs578T it was 47.3%; in the assay on BT-474, 70.9%; in the assay on MDA-MB-453 [5], 91.4%. In the assay with HDQ-P1 [6], this compound gave a normalised response of 63.7%.
For `N.N.[Cl][Pt][Cl]` [Cisplatin] (1000 nM), the normalised viability was determined as 104% in the assay on CAL-51 [1]; 110% in the assay with DU-4475; 103% in the assay with MDA-MB-453 [2]; 108% in the assay on HDQ-P1 [3]; 112% in the assay on CAL-148; 86.4% with CAL-85-1. Besides, the normalised response stood at 100% in the assay with CAL-51 [4]; 106% with CAL-120; 89.3% in the assay on BT-549; 144% in the assay on Hs578T; 103% with BT-474; 95.4% with MDA-MB-453 [5]. The compound further registered a normalised response with HDQ-P1 [6] of 109%.
